Key:
cocklebur = assay: Test B pre/postemergence cocklebur; assay type: in vivo, Xanthium strumarium
Procedure, shortened: (§1)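 Response is a visual 0-to-10 score relative to untreated plants, where 0 means no effect and 10 means complete control, taken twelve to sixteen days after application. Treatments went onto soil at planting and onto foliage of 1- to 4-leaf plants, using a surfactant-containing non-phytotoxic solvent.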

sugar beet = assay: Test B pre/postemergence sugar beet; assay type: in vivo, Beta vulgaris
Procedure, shortened: as §1

giant foxtail = assay: Test B pre/postemergence giant foxtail; assay type: in vivo, Setaria faberii
Procedure, shortened: as §1

duck salad = assay: Test B flood test duck salad; assay type: in vivo, Heteranthera limosa
Procedure, shortened: (§2)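 Flood test on plants grown to the 2-leaf stage; treated plants kept in greenhouse twelve to sixteen days, then visually rated against controls on a 0 (no effect) to 10 (complete control) scale.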

velvetleaf = assay: Test B pre/postemergence velvetleaf; assay type: in vivo, Abutilon theophrasti
Procedure, shortened: as §1

purple nutsedge = assay: Test B pre/postemergence purple nutsedge; assay type: in vivo, Cyperus rotundus
Procedure, shortened: as §1

soybean = assay: Test B pre/postemergence soybean; assay type: in vivo, Glycine max
Procedure, shortened: as §1

corn = assay: Test B pre/postemergence corn; assay type: in vivo, Zea mays
Procedure, shortened: as §1

rape = assay: Test B pre/postemergence rape; assay type: in vivo, Brassica napus
Procedure, shortened: as §1

smallflower flatsedge = assay: Test B flood test smallflower flatsedge; assay type: in vivo, Cyperus difformis
Procedure, shortened: as §2

pigweed = assay: Test B pre/postemergence pigweed; assay type: in vivo, Amaranthus retroflexus
Procedure, shortened: as §1

wheat = assay: Test B pre/postemergence wheat; assay type: in vivo, Triticum aestivum
Procedure, shortened: as §1

crabgrass = assay: Test B pre/postemergence crabgrass; assay type: in vivo, Digitaria sanguinalis
Procedure, shortened: as §1

rice = assay: Test B flood test rice; assay type: in vivo, Oryza sativa
Procedure, shortened: as §2

blackgrass = assay: Test B pre/postemergence blackgrass; assay type: in vivo, Alopecurus myosuroides
Procedure, shortened: as §1

morningglory = assay: Test B pre/postemergence morningglory; assay type: in vivo, Ipomoea hederacea
Procedure, shortened: as §1

[1] = Postemergence, Rate 62 g/ha, scale 0 to 10, 0 is no effect, 10 is complete control
[2] = Postemergence, Rate 125 g/ha, scale of 0 to 10 where 0 is no effect and 10 is complete control
[3] = Postemergence, Rate 250 g/ha, scale 0 to 10, 0 no effect, 10 complete control
[4] = Preemergence, Rate 62 g/ha, scale 0 to 10 (0 no effect, 10 complete control)
[5] = Preemergence, Rate 125 g/ha, scale 0 to 10 (0 no effect, 10 complete control)
[6] = Preemergence, Rate 250 g/ha, scale of 0 to 10 where 0 is no effect and 10 is complete control
[7] = Preemergence, Rate 500 g/ha, scale 0 (no effect) to 10 (complete control)
[8] = Rate 500 g/ha, Postemergence, scale 0 to 10, 0 no effect, 10 complete control
[9] = Rate 250 g/ha, Postemergence, scale 0 to 10, 0 is no effect, 10 is complete control
[10] = Postemergence (flood test species), Rate 125 g/ha, scale of 0 to 10 where 0 is no effect and 10 is complete control
[11] = Rate 500 g/ha, listed under Postemergence (flood test species), scale 0 to 10, 0 no effect, 10 complete control
[12] = Rate 250 g/ha, Postemergence (flood test), scale 0 to 10, 0 is no effect, 10 is complete control

With `CC(C)N(C(=O)n1oc(=O)n(-c2cccc3c2CCCC3)c1=O)c1ccc(F)cc1` [Compound 90] the “Cocklebur plant response rating” value (cocklebur; [1]) was 1, the “Cocklebur plant response rating” value (cocklebur; [2]) was 3 and the “Cocklebur plant response rating” value (cocklebur; [3]) was 3. The “Cocklebur plant response rating” value (cocklebur; [4]) was 0, the “Plant response rating, Cocklebur” value (cocklebur; [5]) was 0 and the “Plant response rating, Cocklebur” value (cocklebur; [6]) was 0. For the same compound, the “Cocklebur plant response rating” value (cocklebur; [7]) was 0, the “Cocklebur plant response rating” value (cocklebur; [8]) was 5 and the “Sugarbeets plant response rating” value (sugar beet; [1]) was 0. The “Sugarbeets plant response rating” value (sugar beet; [2]) was 0, the “Sugarbeets plant response rating” value (sugar beet; [4]) was 0 and the “Plant response rating, Sugarbeets” value (sugar beet; [5]) was 0. The “Plant response rating, Sugarbeets” value (sugar beet; [6]) was 0, the “Sugarbeets plant response rating” value (sugar beet; [7]) was 0 and the “Plant response rating, Sugarbeets” value (sugar beet; [9]) was 3. The “Sugarbeets plant response rating” value (sugar beet; [8]) was 3, the “Giant foxtail plant response rating” value (giant foxtail; [1]) was 0 and the “Giant foxtail plant response rating” value (giant foxtail; [2]) was 0. The “Giant foxtail plant response rating” value (giant foxtail; [3]) was 1, the “Giant foxtail plant response rating” value (giant foxtail; [4]) was 4 and the “Plant response rating, Giant foxtail” value (giant foxtail; [5]) was 8. For the same compound, the “Plant response rating, Giant foxtail” value (giant foxtail; [6]) was 9, the “Giant foxtail plant response rating” value (giant foxtail; [7]) was 10 and the “Giant foxtail plant response rating” value (giant foxtail; [8]) was 1. For the same compound, the “Ducksalad plant response rating” value (duck salad; [10]) was 0, the “Ducksalad plant response rating” value (duck salad; [1]) was 0 and the “Ducksalad plant response rating” value (duck salad; [11]) was 0. The “Ducksalad plant response rating” value (duck salad; flood test, listed under Postemergence, Rate 250 g/ha, scale 0 to 10, 0 no effect, 10 complete control) was 0, the “Velvetleaf plant response rating” value (velvetleaf; [1]) was 0 and the “Velvetleaf plant response rating” value (velvetleaf; [2]) was 0. For the same compound, the “Velvetleaf plant response rating” value (velvetleaf; [4]) was 0, the “Plant response rating, Velvetleaf” value (velvetleaf; [5]) was 0 and the “Plant response rating, Velvetleaf” value (velvetleaf; [6]) was 0. The “Velvetleaf plant response rating” value (velvetleaf; [7]) was 0, the “Plant response rating, Velvetleaf” value (velvetleaf; [9]) was 0 and the “Nutsedge plant response rating” value (purple nutsedge; [1]) was 0. For the same compound, the “Nutsedge plant response rating” value (purple nutsedge; [2]) was 0, the “Nutsedge plant response rating” value (purple nutsedge; [3]) was 0 and the “Nutsedge plant response rating” value (purple nutsedge; [4]) was 0. For the same compound, the “Plant response rating, Nutsedge” value (purple nutsedge; [5]) was 0, the “Plant response rating, Nutsedge” value (purple nutsedge; [6]) was 0 and the “Nutsedge plant response rating” value (purple nutsedge; [7]) was 0. For the same compound, the “Nutsedge plant response rating” value (purple nutsedge; [8]) was 0, the “Soybean plant response rating” value (soybean; [1]) was 4 and the “Soybean plant response rating” value (soybean; [2]) was 4. For the same compound, the “Soybean plant response rating” value (soybean; [4]) was 0, the “Plant response rating, Soybean” value (soybean; [5]) was 0 and the “Plant response rating, Soybean” value (soybean; [6]) was 0. For the same compound, the “Soybean plant response rating” value (soybean; [7]) was 0, the “Plant response rating, Soybean” value (soybean; [9]) was 4 and the “Soybean plant response rating” value (soybean; [8]) was 4. For the same compound, the “Corn plant response rating” value (corn; [1]) was 0, the “Corn plant response rating” value (corn; [2]) was 0 and the “Corn plant response rating” value (corn; [3]) was 0. The “Corn plant response rating” value (corn; [4]) was 0, the “Plant response rating, Corn” value (corn; [5]) was 0 and the “Plant response rating, Corn” value (corn; [6]) was 0. For the same compound, the “Corn plant response rating” value (corn; [7]) was 0, the “Corn plant response rating” value (corn; [8]) was 0 and the “Rape plant response rating” value (rape; [1]) was 0. The “Rape plant response rating” value (rape; [2]) was 0, the “Rape plant response rating” value (rape; [3]) was 0 and the “Rape plant response rating” value (rape; [4]) was 0. The “Plant response rating, Rape” value (rape; [5]) was 0, the “Plant response rating, Rape” value (rape; [6]) was 0 and the “Rape plant response rating” value (rape; [7]) was 0. For the same compound, the “Rape plant response rating” value (rape; [8]) was 0, the “S. Flatsedge plant response rating” value (smallflower flatsedge; [10]) was 0 and the “S. Flatsedge plant response rating” value (smallflower flatsedge; [1]) was 0. For the same compound, the “Plant response rating, S. Flatsedge” value (smallflower flatsedge; [12]) was 0, the “S. Flatsedge plant response rating” value (smallflower flatsedge; [11]) was 0 and the “Redroot pigweed plant response rating” value (pigweed; [1]) was 2. The “Redroot pigweed plant response rating” value (pigweed; [2]) was 5, the “Redroot pigweed plant response rating” value (pigweed; [4]) was 0 and the “Plant response rating, Redroot pigweed” value (pigweed; [5]) was 0. The “Plant response rating, Redroot pigweed” value (pigweed; [6]) was 0, the “Redroot pigweed plant response rating” value (pigweed; [7]) was 6 and the “Plant response rating, Redroot pigweed” value (pigweed; [9]) was 6. For the same compound, the “Redroot pigweed plant response rating” value (pigweed; [8]) was 7, the “Wheat plant response rating” value (wheat; [1]) was 0 and the “Wheat plant response rating” value (wheat; [2]) was 0. For the same compound, the “Wheat plant response rating” value (wheat; [4]) was 0, the “Plant response rating, Wheat” value (wheat; [5]) was 0 and the “Plant response rating, Wheat” value (wheat; [6]) was 0. The “Wheat plant response rating” value (wheat; [7]) was 0, the “Plant response rating, Wheat” value (wheat; [9]) was 0 and the “Wheat plant response rating” value (wheat; [8]) was 0. The “Crabgrass plant response rating” value (crabgrass; [1]) was 1, the “Crabgrass plant response rating” value (crabgrass; [2]) was 2 and the “Crabgrass plant response rating” value (crabgrass; [3]) was 2. The “Crabgrass plant response rating” value (crabgrass; [4]) was 0, the “Plant response rating, Crabgrass” value (crabgrass; [5]) was 2 and the “Plant response rating, Crabgrass” value (crabgrass; [6]) was 8. For the same compound, the “Crabgrass plant response rating” value (crabgrass; [7]) was 8, the “Crabgrass plant response rating” value (crabgrass; [8]) was 4 and the “Rice plant response rating” value (rice; [10]) was 0. The “Rice plant response rating” value (rice; [1]) was 0, the “Plant response rating, Rice” value (rice; [12]) was 0 and the “Rice plant response rating” value (rice; [11]) was 0. For the same compound, the “Blackgrass plant response rating” value (blackgrass; [1]) was 0, the “Blackgrass plant response rating” value (blackgrass; [2]) was 0 and the “Blackgrass plant response rating” value (blackgrass; [3]) was 0. For the same compound, the “Blackgrass plant response rating” value (blackgrass; [4]) was 0, the “Plant response rating, Blackgrass” value (blackgrass; [5]) was 0 and the “Plant response rating, Blackgrass” value (blackgrass; [6]) was 3. The “Blackgrass plant response rating” value (blackgrass; [7]) was 6, the “Blackgrass plant response rating” value (blackgrass; [8]) was 0 and the “Morningglory plant response rating” value (morningglory; [1]) was 3. For the same compound, the “Morningglory plant response rating” value (morningglory; [2]) was 3, the “Morningglory plant response rating” value (morningglory; [3]) was 4 and the “Morningglory plant response rating” value (morningglory; [4]) was 0. For the same compound, the “Plant response rating, Morningglory” value (morningglory; [5]) was 0, the “Plant response rating, Morningglory” value (morningglory; [6]) was 0 and the “Morningglory plant response rating” value (morningglory; [7]) was 0. The “Morningglory plant response rating” value (morningglory; [8]) was 4.

— patent US6737383B1, “Herbicidal oxadiazolidines” (priority 1999, dated 2004)
